Data set [1] concerns E. Coli NIH JC-2 (IFO 12734). In words: Minimum inhibitory concentration, standard method of Japan Society of Chemotherapy, E. Coli NIH JC-2. Particulars: Escherichia coli, IFO12734. It counts as cell-based. The protocol: (§1) Antibacterial activity, absorption and excretion of the compounds indicated in Examples were tested as follows.
(§2) The minimum inhibitory concentration (MIC: microgram/ml) is measured by the standard method of Japan Society of Chemotherapy, (Chemotherapy, Volume 29, No.1, pp.76-79, 1981). The results are shown in Table 52 in which compound numbers are the same as those indicated in Examples.

Data set [2] has as its system P. aeruginosa (IFO 3445). The data set is described as follows: Minimum inhibitory concentration, standard method of Japan Society of Chemotherapy, P. aeruginosa. The class given is cell-based. Particulars: Pseudomonas aeruginosa, IFO3445. The protocol: as §1, §2
Data set [3] in a line: Recovery in urine after oral administration (disk method, Bacillus subtilis ATCC 6633). The class given is in vivo, male JCL-SD rats. Particulars: rat, 20 mg/kg, rats, 20 mg/10 ml/kg in 0.5% methylcellulose, fasted overnight, read-out: Excretion Rate, In Urine. The protocol: (§3) The absorption and excretion after oral administration of the compounds of the present invention were tested by measuring the recovery in urine and bile as follows.
To a group of three male JCL-SD rats (6 weeks old) fasted overnight, a subject compound was orally administered as prepared to be 20 mg/10 ml/kg with 0.5% of methylcellulose solution. The sampling was carried out by collecting urine in 0 to 6 hours and 6 to 24 hours. The concentration of the subject compound in the urine was examined by a disk method by using Bacillus subtilis ATCC 6633 as a testing bacillus to obtain an excretion rate in urine for 24 hours.

Data set [4] in a line: Recovery in bile after oral administration (disk method, Bacillus subtilis ATCC 6633). The class given is in vivo. Particulars: rat, 20 mg/kg, rats, prepared as in urine test (20 mg/10 ml/kg), read-out: Excretion Rate, In Bile. The protocol:
as §3
A subject compound was prepared in the same manner as the recovery test in urine and was orally administered to the rats. The bile was collected by using a polyethylene tube inserted into the choledochus over 24 hours. The concentration of the subject compound in the bile sample was examined in the same manner as the recovery in urine to obtain an excretion rate in bile for 24 hours.

The test system of data set [5] is S. aureus 209P (IFO 12732). In words: Minimum inhibitory concentration, standard method of Japan Society of Chemotherapy, S. aureus 209P. The class given is cell-based. Particulars: Staphylococcus aureus. The protocol:
as §1, §2

Molecules are shown by their SMILES. Values after ≈ are worked out from the molar mass of the structure shown. Some results are limits rather than exact numbers.

In the case of `C[C@@H]1CN(c2nc3c(cc2F)c(=O)c(C(=O)O)cn3-c2cnsn2)C[C@@H]1N` (single isomer, unassigned) [Compound 19], the values for the MIC in data set [1], in data set [2] and in data set [5] were under 0.013 µg/mL, 0.39 µg/mL (≈ 0.999 µM) and 0.1 µg/mL (≈ 0.256 µM), respectively. In addition, the dose excreted at 24 h in data set [3] was 80.6%; in data set [4], 4.4%.
With `Cl.N[C@H]1CCN(c2nc3c(cc2F)c(=O)c(C(=O)O)cn3-c2cnsn2)C1` [Compound 18, 7-(3-(S)-Aminopyrrolidin-1-yl)-6-fluoro-1-(1,2,5-thiadiazol-3-yl)-1,4-dihydro-4-oxo-1,8-naphthyridine-3-carboxylic acid hydrochloride], the MIC in data set [1] was under 0.013 µg/mL; in data set [2], 0.1 µg/mL; in data set [5], 0.2 µg/mL. In addition, the dose excreted at 24 h in data set [3] turned out to be 20%; in data set [4], 2%.
`N[C@H]1CCN(c2nc3c(cc2F)c(=O)c(C(=O)O)cn3-c2csnn2)C1` [Compound 58]: the MIC in data set [1] was determined as 0.05 µg/mL (≈ 0.133 µM); in data set [2], 0.39 µg/mL (≈ 1.04 µM); in data set [5], 1.56 µg/mL (≈ 4.14 µM).
In the same order, the values of `Cc1nonc1-n1cc(C(=O)O)c(=O)c2cc(F)c(N3CC[C@H](N)C3)nc21` [Compound 81] are 0.05 µg/mL (≈ 0.134 µM), 0.2 µg/mL (≈ 0.534 µM) and 0.1 µg/mL (≈ 0.267 µM).
With `N[C@H]1CCN(c2c(F)cc3c(=O)c(C(=O)O)cn(Cc4cnsn4)c3c2F)C1` [Compound 126], the results for the MIC in data set [1], in data set [2] and in data set [5] were 3.13 µg/mL (≈ 7.68 µM), 3.13 µg/mL (≈ 7.68 µM) and 0.39 µg/mL (≈ 0.957 µM), respectively.
Regarding `Cc1c(F)c(N2CC[C@H](N)C2)cc2c1c(=O)c(C(=O)O)cn2-c1cnsn1` [Compound 162], the MIC in data set [1] was 0.013 µg/mL (≈ 0.0334 µM); in data set [2], 0.2 µg/mL (≈ 0.514 µM); in data set [5], 0.1 µg/mL (≈ 0.257 µM).
Consider `Cc1nsnc1-n1cc(C(=O)O)c(=O)c2cc(F)c(N3CC[C@H](N)C3)nc21.Cl` [Compound 187, 7-(3-(S)-Aminopyrrolidin-1-yl)-6-fluoro-1-(4-methyl-1,2,5-thiadiazol-3-yl)-1,4-dihydro-4-oxo-1,8-naphthyridine-3-carboxylic acid hydrochloride], for which the MIC was found to be 0.05 µg/mL in data set [1], 0.39 µg/mL in data set [2] and 0.2 µg/mL in data set [5].

The values are drawn from patent publication US5412098A, “Quinolone derivative or salt thereof and antibacterial containing the same” (Wakunaga Seiyaku Kabushiki Kaisha, priority 1991, dated 1995).
